Here are results for two compounds from ChEMBL document CHEMBL5523684, “Development of a tetrahydroindazolone-based HDAC6 inhibitor with in-vivo anti-arthritic activity” (Bioorg Med Chem, 2024).

Usually IC50 stands for the concentration that gives 50% inhibition. The term AUC(0-t) denotes exposure summed from dosing to a finite time, without extrapolation to infinity. Usually AUC(0-inf) stands for total exposure, with the tail of the curve extrapolated.

One series addresses Histone deacetylase 3 (Homo sapiens, UniProt O15379).
A further series concerns the target Histone deacetylase 1 (Homo sapiens, UniProt Q13547). As to the kind of experiment: Inhibition of human recombinant HDAC1 using fluorescent peptide p53 (379 to 382 residues) RHKK(Ac) as substrate by fluorescence based analysis.
For the next series, the target named is T1, Histone deacetylase 11 (Homo sapiens, UniProt Q96DB2).
T1 sequence (Q96DB2 whole entry): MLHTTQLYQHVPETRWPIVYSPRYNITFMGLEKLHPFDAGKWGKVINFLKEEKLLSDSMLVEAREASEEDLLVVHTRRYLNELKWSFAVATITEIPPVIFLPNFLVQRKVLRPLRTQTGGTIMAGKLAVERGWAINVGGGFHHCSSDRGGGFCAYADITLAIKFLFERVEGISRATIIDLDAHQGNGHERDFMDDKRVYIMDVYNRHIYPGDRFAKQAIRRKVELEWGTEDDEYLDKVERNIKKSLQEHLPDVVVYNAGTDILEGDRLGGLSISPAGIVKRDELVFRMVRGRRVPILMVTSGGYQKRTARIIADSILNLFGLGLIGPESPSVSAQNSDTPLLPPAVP
The series is described as follows: Inhibition of human recombinant HDAC11 using fluorescent peptide p53 (379 to 382 residues) RHKK(Ac) as substrate by fluorescence based analysis.

In series [1] the target is T2, Polyamine deacetylase HDAC10 (Homo sapiens, UniProt Q969S8).
T2 sequence (Q969S8 whole entry): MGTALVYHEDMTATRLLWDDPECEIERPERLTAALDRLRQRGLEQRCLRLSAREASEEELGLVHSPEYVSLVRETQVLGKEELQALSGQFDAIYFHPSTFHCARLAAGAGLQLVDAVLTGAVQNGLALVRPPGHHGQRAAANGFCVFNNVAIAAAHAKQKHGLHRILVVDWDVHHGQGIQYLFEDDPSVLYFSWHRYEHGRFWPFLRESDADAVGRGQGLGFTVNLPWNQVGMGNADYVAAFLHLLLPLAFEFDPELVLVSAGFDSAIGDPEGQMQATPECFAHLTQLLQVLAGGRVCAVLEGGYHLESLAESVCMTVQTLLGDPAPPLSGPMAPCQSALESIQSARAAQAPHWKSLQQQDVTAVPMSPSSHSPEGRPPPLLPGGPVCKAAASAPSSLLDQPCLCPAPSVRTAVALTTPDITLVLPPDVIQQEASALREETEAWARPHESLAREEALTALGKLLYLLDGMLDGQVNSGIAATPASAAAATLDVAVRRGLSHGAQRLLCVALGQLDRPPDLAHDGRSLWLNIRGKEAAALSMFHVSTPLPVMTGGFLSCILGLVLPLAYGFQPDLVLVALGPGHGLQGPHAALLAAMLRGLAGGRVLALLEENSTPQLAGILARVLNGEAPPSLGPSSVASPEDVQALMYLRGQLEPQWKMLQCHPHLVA
The series is described as follows: Inhibition of human recombinant HDAC10 using fluorescent peptide p53 (379 to 382 residues) RHKK(Ac) as substrate by fluorescence based analysis.

A further series is filed under the species Homo sapiens. The series is described as follows: Selectivity index, ratio of IC50 for inhibition of his-tagged human recombinant HDAC1 using fluor de lys-SIRT1 as substrate to IC50 for inhibition of N-terminal GST-tagged human recombinant HDAC6 expressed in Spodoptera frugiperda.
The next series has as its target Histone deacetylase 2 (Homo sapiens, UniProt Q92769). As to the kind of experiment: Inhibition of human recombinant HDAC2 using fluorescent peptide p53 (379 to 382 residues) RHKK(Ac) as substrate by fluorescence based analysis.
The target in a further series is T3, Histone deacetylase 8 (Homo sapiens, UniProt Q9BY41).
T3 sequence (Q9BY41 whole entry): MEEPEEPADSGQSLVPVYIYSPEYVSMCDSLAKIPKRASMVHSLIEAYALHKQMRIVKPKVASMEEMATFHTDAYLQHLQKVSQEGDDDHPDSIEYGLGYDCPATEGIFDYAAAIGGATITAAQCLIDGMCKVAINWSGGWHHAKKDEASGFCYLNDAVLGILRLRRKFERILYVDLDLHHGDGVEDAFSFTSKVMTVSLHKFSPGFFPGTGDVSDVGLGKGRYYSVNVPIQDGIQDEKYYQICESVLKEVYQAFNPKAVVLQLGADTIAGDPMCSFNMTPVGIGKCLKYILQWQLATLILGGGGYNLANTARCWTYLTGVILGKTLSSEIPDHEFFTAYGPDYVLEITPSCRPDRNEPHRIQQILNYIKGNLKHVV
As to the kind of experiment: Inhibition of human recombinant HDAC8 using fluorescent peptide p53 (379 to 382 residues) (RHK(Ac)K(Ac)) as substrate by fluorescence based analysis.

A further series addresses T4, Histone deacetylase 7 (Homo sapiens, UniProt Q8WUI4).
T4 sequence (Q8WUI4 whole entry): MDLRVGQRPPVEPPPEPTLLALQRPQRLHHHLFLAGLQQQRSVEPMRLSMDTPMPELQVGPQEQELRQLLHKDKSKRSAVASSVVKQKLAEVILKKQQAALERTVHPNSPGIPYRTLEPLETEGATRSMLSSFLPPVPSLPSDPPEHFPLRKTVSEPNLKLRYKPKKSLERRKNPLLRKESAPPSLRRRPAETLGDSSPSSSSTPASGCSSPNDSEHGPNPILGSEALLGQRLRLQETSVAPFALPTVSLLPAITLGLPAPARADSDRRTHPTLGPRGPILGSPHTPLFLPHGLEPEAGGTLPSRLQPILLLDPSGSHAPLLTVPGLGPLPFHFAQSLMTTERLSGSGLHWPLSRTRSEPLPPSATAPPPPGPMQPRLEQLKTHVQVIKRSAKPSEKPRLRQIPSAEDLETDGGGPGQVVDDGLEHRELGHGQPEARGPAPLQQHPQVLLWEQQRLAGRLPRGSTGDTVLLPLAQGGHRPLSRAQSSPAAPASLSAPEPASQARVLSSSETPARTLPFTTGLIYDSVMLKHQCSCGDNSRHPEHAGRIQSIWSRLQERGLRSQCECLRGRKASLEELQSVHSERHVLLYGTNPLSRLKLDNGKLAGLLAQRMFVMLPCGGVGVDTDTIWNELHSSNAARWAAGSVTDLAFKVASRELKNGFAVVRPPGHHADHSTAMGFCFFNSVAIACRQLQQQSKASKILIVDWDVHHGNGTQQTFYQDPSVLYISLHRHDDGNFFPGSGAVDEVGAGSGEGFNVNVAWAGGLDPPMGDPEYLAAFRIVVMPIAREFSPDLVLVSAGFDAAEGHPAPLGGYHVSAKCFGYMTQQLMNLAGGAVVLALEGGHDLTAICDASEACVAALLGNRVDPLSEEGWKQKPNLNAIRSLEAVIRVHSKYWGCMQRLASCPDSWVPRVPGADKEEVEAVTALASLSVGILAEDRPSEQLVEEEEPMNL
The series is described as follows: Inhibition of human recombinant HDAC7 using Boc-Lys(tri-fluoroacetyl)-AMC as substrate by fluorescence based analysis.

A short description of series [2]: AUClast in dog at 5 mg/kg, po. The settings on record: in vivo. The class given is ADME, organism-based, Canis lupus familiaris.
Series [3] can be described thus: AUC (0 to infinity) in monkey at 10 mg/kg, po. In kind it is ADME, organism-based, Macaca mulatta. To be noted: rhesus monkey, in vivo.

Chain of Histone deacetylase 1 (Q13547 whole entry, the tested form may be a part): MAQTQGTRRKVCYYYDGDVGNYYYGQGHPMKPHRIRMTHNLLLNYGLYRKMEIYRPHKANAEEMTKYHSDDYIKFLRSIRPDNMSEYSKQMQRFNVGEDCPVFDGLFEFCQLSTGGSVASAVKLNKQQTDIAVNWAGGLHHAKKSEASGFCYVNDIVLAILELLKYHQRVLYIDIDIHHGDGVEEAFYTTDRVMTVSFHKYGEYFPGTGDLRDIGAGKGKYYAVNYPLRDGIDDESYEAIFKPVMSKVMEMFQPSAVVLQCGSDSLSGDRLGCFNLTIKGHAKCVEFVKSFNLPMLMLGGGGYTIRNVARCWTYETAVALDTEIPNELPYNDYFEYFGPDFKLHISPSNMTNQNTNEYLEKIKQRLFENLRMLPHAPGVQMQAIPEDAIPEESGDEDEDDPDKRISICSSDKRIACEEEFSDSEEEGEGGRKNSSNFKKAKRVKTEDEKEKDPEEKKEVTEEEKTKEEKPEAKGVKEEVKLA
Chain of Histone deacetylase 3 (O15379 whole entry, the tested form may be a part): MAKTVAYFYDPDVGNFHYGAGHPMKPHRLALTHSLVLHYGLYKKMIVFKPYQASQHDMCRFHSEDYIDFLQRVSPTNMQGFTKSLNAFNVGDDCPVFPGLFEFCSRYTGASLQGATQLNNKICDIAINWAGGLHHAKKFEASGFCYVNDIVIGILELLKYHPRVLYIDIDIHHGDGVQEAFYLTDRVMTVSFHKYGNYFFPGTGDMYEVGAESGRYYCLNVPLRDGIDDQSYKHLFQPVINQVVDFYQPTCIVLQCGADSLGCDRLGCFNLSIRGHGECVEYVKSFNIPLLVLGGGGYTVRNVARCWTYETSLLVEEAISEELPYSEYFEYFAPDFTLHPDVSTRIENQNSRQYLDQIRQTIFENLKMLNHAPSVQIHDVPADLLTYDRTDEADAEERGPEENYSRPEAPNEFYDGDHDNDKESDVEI
Chain of Histone deacetylase 2 (Q92769 whole entry, the tested form may be a part): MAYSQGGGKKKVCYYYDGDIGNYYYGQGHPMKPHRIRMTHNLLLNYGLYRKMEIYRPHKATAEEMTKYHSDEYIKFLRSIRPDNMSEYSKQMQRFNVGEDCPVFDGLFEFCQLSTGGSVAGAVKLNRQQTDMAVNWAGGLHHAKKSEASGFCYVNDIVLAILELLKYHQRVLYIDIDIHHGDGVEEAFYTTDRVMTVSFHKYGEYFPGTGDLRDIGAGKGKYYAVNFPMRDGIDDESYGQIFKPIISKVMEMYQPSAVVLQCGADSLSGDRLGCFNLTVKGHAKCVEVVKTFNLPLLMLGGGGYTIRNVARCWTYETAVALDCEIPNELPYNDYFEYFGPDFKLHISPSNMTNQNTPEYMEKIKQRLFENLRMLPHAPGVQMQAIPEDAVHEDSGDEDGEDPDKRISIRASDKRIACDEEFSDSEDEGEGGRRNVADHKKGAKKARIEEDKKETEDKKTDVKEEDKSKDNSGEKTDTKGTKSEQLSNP

In the case of `O=C(NO)c1ccc(Cn2c3c(c4ccccc42)C(=O)CCC3)cc1`, the IC50 on Histone deacetylase 3 is > 20 µM; at Histone deacetylase 1, 18.1 µM; on Histone deacetylase 11 it was > 20 µM; in series [1], > 20 µM; at Histone deacetylase 2 it was > 20 µM; at Histone deacetylase 8, > 20 µM. In addition, the IC50 on Histone deacetylase 7 was > 20 µM. Also, in the series filed under Homo sapiens, the Ratio IC50 was 168.
In the case of `CC1(C)CC(=O)c2c(C(F)(F)F)nn(Cc3ccc(C(=O)NO)cc3)c2C1`, the IC50 (at Histone deacetylase 3; at Histone deacetylase 1; at Histone deacetylase 11; in series [1]; on Histone deacetylase 2; on Histone deacetylase 8) was > 20 µM throughout. In addition, the IC50 at Histone deacetylase 7 is > 20 µM. This compound registered an AUC(0-t) in [2] of 1090 ng·h/mL. Moreover, the AUC(0-inf) in series [3] turned out to be 339 ng·h/mL. Further, the Ratio IC50 in the series filed under Homo sapiens came out at 217.
